Values quoted from earlier work in US20220354953A1, “PHOTODYNAMIC THERAPY COMPOSITIONS AND METHODS OF TREATMENT THEREIN” (Pinnacle Biologics, Inc., priority 2021, published 2022).

**Q.** With porfimer sodium as the substance, how does the “time stable when reconstituted with saline” value read?
**A.** 24 h
